Results reported in ChEMBL document CHEMBL1201862, “PubChem BioAssay data set” (2004).
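In this assay, cells in 96-well plates receive the compound at five concentrations for 48 hours. Endpoints are linearly interpolated between the surrounding concentrations. The concentration for 50% growth inhibition is given as GI50.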 Active and inactive are the calls of the source. No stated cut-off is given here; in the data, active = GI50 up to about 1.1 µM and inactive = higher.

Tests used:
Assay in all cases: growth of human tumour cells (NCI), 48 h
DMS-114 = test system: DMS-114
SF-268 = test system: SF-268
CAKI-1 = test system: CAKI-1
SNB-19 = test system: SNB-19
ACHN = test system: ACHN
HOP-92 = test system: HOP-92
DLD-1 = test system: DLD-1
NCI-H226 = test system: NCI-H226
UACC-62 = test system: UACC-62
HCC 2998 = test system: HCC 2998
HOP-62 = test system: HOP-62
SNB-78 = test system: SNB-78
CCRF-CEM = test system: CCRF-CEM
SN12C = test system: SN12C
KM-20L2 = test system: KM-20L2
TK-10 = test system: TK-10
HOP-18 = test system: HOP-18
Malme-3M = test system: Malme-3M
RPMI-8226 = test system: RPMI-8226
COLO 205 = test system: COLO 205
RXF 393 = test system: RXF 393
A549 = test system: A549
NCI-H460 = test system: NCI-H460
OVCAR-4 = test system: OVCAR-4
RXF 631 = test system: RXF 631
HCT-116 = test system: HCT-116
SK-MEL-5 = test system: SK-MEL-5
SR = test system: SR
UACC-257 = test system: UACC-257
SW-620 = test system: SW-620
K562 = test system: K562
HT-29 = test system: HT-29
M19-MEL = test system: M19-MEL
DMS-273 = test system: DMS-273
MOLT-4 = test system: MOLT-4
U-251 = test system: U-251
KM12 = test system: KM12
SK-MEL-2 = test system: SK-MEL-2
A498 = test system: A498
SK-OV-3 = test system: SK-OV-3
SNB-75 = test system: SNB-75
HCT-15 = test system: HCT-15
LXFL 529 = test system: LXFL 529
SF-295 = test system: SF-295
IGROV-1 = test system: IGROV-1
LOX IMVI = test system: LOX IMVI
UO-31 = test system: UO-31
OVCAR-5 = test system: OVCAR-5
HL-60 = test system: HL-60
M14 = test system: M14
786-0 = test system: 786-0
SF-539 = test system: SF-539
OVCAR-8 = test system: OVCAR-8
NCI-H522 = test system: NCI-H522

C=C1C(OC(C)=O)CC(OC(C)=O)C2(C)C(OC(C)=O)C(OC(C)=O)C3=C(C)C(OC(=O)/C=C/c4ccccc4)CC(C(OC(C)=O)C12)C3(C)C (centres undefined)
GI50 (DMS-114): > 100 µM (inactive) | GI50 (SF-268): 26.7 µM (inactive) | GI50 (CAKI-1): 33.1 µM (inactive) | GI50 (SNB-19): 51.8 µM (inactive) | GI50 (ACHN): 35.5 µM (inactive) | GI50 (HOP-92): 21.8 µM (inactive) | GI50 (DLD-1): > 100 µM (inactive) | GI50 (NCI-H226): 67.3 µM (inactive) | GI50 (UACC-62): > 100 µM (inactive) | GI50 (HCC 2998): > 100 µM (inactive) | GI50 (HOP-62): 31 µM (inactive) | GI50 (SNB-78): 38.8 µM (inactive) | GI50 (CCRF-CEM): > 100 µM (inactive) | GI50 (SN12C): > 100 µM (inactive) | GI50 (KM-20L2): > 100 µM (inactive) | GI50 (TK-10): > 100 µM (inactive) | GI50 (HOP-18): 51.1 µM (inactive) | GI50 (Malme-3M): 59.3 µM (inactive) | GI50 (RPMI-8226): > 100 µM (inactive) | GI50 (COLO 205): > 100 µM (inactive) | GI50 (RXF 393): 36.4 µM (inactive) | GI50 (A549): > 100 µM (inactive) | GI50 (NCI-H460): > 100 µM (inactive) | GI50 (OVCAR-4): 16.7 µM (inactive) | GI50 (RXF 631): 51.2 µM (inactive) | GI50 (HCT-116): > 100 µM (inactive) | GI50 (SK-MEL-5): > 100 µM (inactive) | GI50 (SR): > 100 µM (inactive) | GI50 (UACC-257): > 100 µM (inactive) | GI50 (SW-620): > 100 µM (inactive) | GI50 (K562): > 100 µM (inactive) | GI50 (HT-29): > 100 µM (inactive) | GI50 (M19-MEL): > 100 µM (inactive) | GI50 (DMS-273): > 100 µM (inactive) | GI50 (MOLT-4): > 100 µM (inactive) | GI50 (U-251): 36.2 µM (inactive) | GI50 (KM12): > 100 µM (inactive) | GI50 (SK-MEL-2): 55.6 µM (inactive) | GI50 (A498): 61.1 µM (inactive) | GI50 (SK-OV-3): 30.5 µM (inactive) | GI50 (SNB-75): 15.1 µM (inactive) | GI50 (HCT-15): > 100 µM | GI50 (LXFL 529): 51.9 µM (inactive) | GI50 (SF-295): 23.9 µM (inactive) | GI50 (IGROV-1): > 100 µM (inactive) | GI50 (LOX IMVI): > 100 µM (inactive) | GI50 (UO-31): > 100 µM (inactive) | GI50 (OVCAR-5): > 100 µM (inactive) | GI50 (HL-60): > 100 µM (inactive) | GI50 (M14): > 100 µM (inactive) | GI50 (786-0): 30.8 µM (inactive) | GI50 (SF-539): 25.5 µM (inactive) | GI50 (OVCAR-8): 46.3 µM (inactive) | GI50 (NCI-H522): 68.1 µM (inactive)
